In US7425556B2 (priority 2005, dated 2008):
One block for each compound: values may come before it.

Columns and labels:
[1] = target: T1, GABAA2 receptors (α2, β3, γ2 receptor subunits) (Homo sapiens, UniProt P18507+P47869); assay: biochemical; conditions: [3H]-Flunitrazepam ~2 nM, α2β3γ2 Sf9 membranes, 1 hr at 4° C.; read-out: GABAA2 Binding Ki
T1 construct: host or cells: Sf9 cells (membranes)
Protocol: In some embodiments, the binding test was directed to a subtype of GABAA receptors, such as GABAA1 receptors (i.e., those containing the α1 subunit), GABAA2 receptors (i.e., those containing the α2 subunit), GABAA3 receptors (i.e., those containing the α3 subunit) and GABAA5 receptors (i.e., those containing the α5 subunit).
[formula] Method FF GABAA2 Binding Method Reagents
Assay and Wash Buffer: 50 mM Tris-Citrate, 200 mM NaCl, pH 7.8
Compounds at 10 mM in DMSO: Put 75 μl in column 1 of compound plate.
Flumazenil, 10 mM (for NSB)
[^3H]-Flunitrazepam (Cat #NET567): Prepare 10× stock=20 nM, [F} in assay=˜2 nM
1. […] Add 5 ul of 30 uM flumazenil to wells 12 D-E for 50% control wells.
2. Spot 2 μl of compound dilutions into dry plate (Automation Program 3). Manually spot 2 μl 10 mM flumazenil into wells 12 F-H for nonspecific control.
3. Make 1:100 dilution in assay buffer (2 μl into 200 μl) and dispense 25 μl compound into assay plates (Automation Program 4).
4. Dispense 200 μl membranes into assay plate (Automation Program 5).
5. Add 25 μl [^3H]-Flunitrazepam (Automation Program 6). Incubate for 1 hr at 4° C.
6. Collect membranes on a cell harvester onto GF/B filter plates (pre-wet with dH2O and wash 5×400 μl/well, with cold assay buffer. (First 3 washes are considered hot; last two are cold.)
7. Dry plates for 2-3 hours at RT.
8. Add 40 μl Microsecond 40/well (Automation Program 7); seal plates. Count on a Top Count.
Data is analyzed by calculating percent of control, IC50, and Kid in an Lift template. The following formula is used in the templates: […]

[2] = target: T2, GABAA1 (human α1β2γ2 GABAA receptor) (Homo sapiens, UniProt P14867+P18507); assay: Two-electrode voltage-clamp in Xenopus oocytes, potentiation of GABA EC10 current, GABAA1; format: cell-based; conditions: percentage potentiation of GABA EC10 current divided by that of diazepam
T2 construct: expressed in transfected cells; host or cells: Xenopus laevis oocytes injected with capped cRNA
T2 sequence (P14867 28-456): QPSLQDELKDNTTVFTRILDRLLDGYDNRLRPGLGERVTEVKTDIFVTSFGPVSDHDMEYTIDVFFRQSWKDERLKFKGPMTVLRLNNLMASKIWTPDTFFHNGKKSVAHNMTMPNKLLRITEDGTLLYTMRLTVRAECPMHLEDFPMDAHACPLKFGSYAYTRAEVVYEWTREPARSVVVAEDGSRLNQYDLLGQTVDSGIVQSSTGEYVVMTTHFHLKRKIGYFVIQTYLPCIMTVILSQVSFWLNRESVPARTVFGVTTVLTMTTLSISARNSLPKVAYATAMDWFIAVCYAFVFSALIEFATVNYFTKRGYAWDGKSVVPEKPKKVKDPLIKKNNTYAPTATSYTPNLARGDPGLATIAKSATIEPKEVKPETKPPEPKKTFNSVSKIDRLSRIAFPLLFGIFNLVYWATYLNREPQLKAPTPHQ
T2 sequence (P47870 25-512 partner limits assumed): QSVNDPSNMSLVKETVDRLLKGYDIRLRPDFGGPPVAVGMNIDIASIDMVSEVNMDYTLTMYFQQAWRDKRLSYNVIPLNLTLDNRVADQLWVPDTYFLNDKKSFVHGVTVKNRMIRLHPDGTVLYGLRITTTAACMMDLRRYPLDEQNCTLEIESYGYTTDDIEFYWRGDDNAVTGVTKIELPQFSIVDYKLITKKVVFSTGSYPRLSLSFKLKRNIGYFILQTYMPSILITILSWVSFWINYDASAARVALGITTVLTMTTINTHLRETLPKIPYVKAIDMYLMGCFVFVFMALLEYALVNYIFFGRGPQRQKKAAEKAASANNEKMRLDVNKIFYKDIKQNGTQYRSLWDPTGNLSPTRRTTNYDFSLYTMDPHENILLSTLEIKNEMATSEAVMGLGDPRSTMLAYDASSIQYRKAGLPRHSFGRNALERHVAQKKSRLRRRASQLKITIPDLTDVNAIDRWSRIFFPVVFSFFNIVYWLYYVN
T2 sequence (P18507 40-475): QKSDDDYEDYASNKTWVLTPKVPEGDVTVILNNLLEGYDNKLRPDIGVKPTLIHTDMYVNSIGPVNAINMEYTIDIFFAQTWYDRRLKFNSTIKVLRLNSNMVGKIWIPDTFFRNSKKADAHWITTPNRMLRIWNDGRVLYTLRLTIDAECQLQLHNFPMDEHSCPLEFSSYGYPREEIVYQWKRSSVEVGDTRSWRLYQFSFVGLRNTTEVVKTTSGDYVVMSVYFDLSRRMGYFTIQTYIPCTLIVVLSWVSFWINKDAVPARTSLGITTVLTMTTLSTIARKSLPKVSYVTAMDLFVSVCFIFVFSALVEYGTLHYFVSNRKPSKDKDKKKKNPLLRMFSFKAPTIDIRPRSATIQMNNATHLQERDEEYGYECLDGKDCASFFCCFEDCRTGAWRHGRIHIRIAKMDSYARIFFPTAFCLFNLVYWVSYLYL
Text: (§1) Presently available GABAA modulator anxiolytics work via interactions at the classical benzodiazepine binding site. To a large degree these anxiolytics lack GABAA receptor subtype-selectivity. The subtype-selective GABAA receptor modulators may offer more advantages. […] Sedation, a side-effect common to all marketed benzodiazepines, is believed to be mediated by interactions at GABAARs containing the α1 subunit. To develop anxiolytics with minimal liabilities due to interactions with other subunits, an electrophysiological assay was developed to screen modulatory effects of various compounds on different GABA subunit combinations heterologously expressed in Xenopus oocytes.
(§2) GABAA receptors were heterologously expressed in Xenopus oocytes by injecting cRNA corresponding to human α1, α2, α3, α5, β2, β3 and γ2 subunits of the GABAA receptor genes. The specific subunit combinations (subtypes) were as follows: α1β2γ2, α2β3γ2, α3β3γ2, and α5β3γ2. The EC10 of GABA was approximated for each cell. Stability of GABA-mediated (EC10) current was established. Modulatory effect of test compound was determined and compared across subtypes. […] Thus, the assay can characterize modulatory effects and determine subtype selectivity of test compounds on major subtypes of GABAA receptors.
(§3) Xenopus laevis frogs (Xenopus I, Kalamazoo, MI) were anesthetized using 0. […] Surgically removed ovarian lobes were teased out in OR2 solution (82 NaCl, 2.5 KCl, 5 HEPES, 1.5 NaH2PO4, 1 MgCl2, 0.1 EDTA, in mM, pH 7.4). The acolytes were deflocculated by incubation in 25 mL OR2 containing 0.2% collagens 1A (SIGMA) two times for about 60 minutes on a platform shaker and stored in Leibovitz's L-15 medium. Acolytes were injected the following day in 0.5× Leibovitz's L-15 medium containing […] gentamycin, 10 units/ml penicillin, and […] streptomycin.
(§4) Capped cRNAs from the linear zed vectors containing human α1, β2 and γ2 subunits of the GABAA receptor genes were mixed in ratio of […]. Acolytes were injected with 25-50 nL of mixed RNA with an appx molar ratio for α1, β2 and γ2 as 1:1:10. Acolyte recordings were done 2-10 days after injection. The same methods apply to subtypes derived from α2β3γ2, α3β3γ2, and α5β3γ2, except for 1:1:1 ratio was used for α, β, and γ subunits.
(§5) All measurements were done in a medium containing ND-96 (96 NaCl, 2 KCl, 1.8 CaCl2.2H2O, 1 MgCl2.6H2O, 5 HEPES, in mM, pH 7.5). Two-electrode voltage-clamp recording was carried out using Opus press amplifier (Axon Instruments, Foster City, Calif.), which allows simultaneous recording from 8 acolytes. Acolytes were impaled with two electrodes of 1-2 MΩ tip resistance when filled with 3M KCl. Recordings were begun when membrane potential became stable at potentials negative to −50-−60 mV. Membrane potential was held at −60 mV. […] The concentration of GABA corresponded to the EC10 value calculated for each acolyte. The modulator pulses started 30 s before the GABA pulse so as to allow preoccupation with the modulator. A set of 3 pulses with just GABA without modulator was given prior to the modulator-containing pulses to define the baseline GABA response. Two acolytes per each experiment were dedicated to observe the effect of diazepam on GABA response to ensure the presence of γ subunit in the GABAA pantomimic complex, which imparts diazepam sensitivity to the complex.
(§6) Current amplitude (i) was measured from baseline to peak using Clamp fit (Axon Inst., Foster City, Calif.). Potentiating was calculated as percent change from the baseline GABA current flux 100×(imod/icontrol)−1) where imod=current mediated by modulator+GABA and icontrol=current mediated by GABA alone. […] Similarly, a value of −50% potentiating means the presence of modulator caused a 50% decrease in the control current.

[3] = target: T3, GABAA2 (human α2β3γ2 GABAA receptor) (Homo sapiens, UniProt P18507+P47869); assay: Two-electrode voltage-clamp in Xenopus oocytes, potentiation of GABA EC10 current, GABAA2; format: cell-based; conditions: percentage potentiation of GABA EC10 current divided by that of diazepam
T3 construct: expressed in transfected cells; host or cells: Xenopus laevis oocytes injected with capped cRNA
T3 sequence (P47869 29-451): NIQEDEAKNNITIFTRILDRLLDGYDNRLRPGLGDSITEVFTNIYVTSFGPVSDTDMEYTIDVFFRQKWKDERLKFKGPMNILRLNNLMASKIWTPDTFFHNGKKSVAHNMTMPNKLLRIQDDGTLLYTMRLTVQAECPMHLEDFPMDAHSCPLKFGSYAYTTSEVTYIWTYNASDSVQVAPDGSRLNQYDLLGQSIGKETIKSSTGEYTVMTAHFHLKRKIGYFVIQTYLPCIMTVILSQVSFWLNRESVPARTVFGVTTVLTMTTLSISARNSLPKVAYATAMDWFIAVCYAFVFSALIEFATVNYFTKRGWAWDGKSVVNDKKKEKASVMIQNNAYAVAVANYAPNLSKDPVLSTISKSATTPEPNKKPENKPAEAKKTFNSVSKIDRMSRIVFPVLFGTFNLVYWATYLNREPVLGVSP
T3 sequence (P28472 26-473 partner): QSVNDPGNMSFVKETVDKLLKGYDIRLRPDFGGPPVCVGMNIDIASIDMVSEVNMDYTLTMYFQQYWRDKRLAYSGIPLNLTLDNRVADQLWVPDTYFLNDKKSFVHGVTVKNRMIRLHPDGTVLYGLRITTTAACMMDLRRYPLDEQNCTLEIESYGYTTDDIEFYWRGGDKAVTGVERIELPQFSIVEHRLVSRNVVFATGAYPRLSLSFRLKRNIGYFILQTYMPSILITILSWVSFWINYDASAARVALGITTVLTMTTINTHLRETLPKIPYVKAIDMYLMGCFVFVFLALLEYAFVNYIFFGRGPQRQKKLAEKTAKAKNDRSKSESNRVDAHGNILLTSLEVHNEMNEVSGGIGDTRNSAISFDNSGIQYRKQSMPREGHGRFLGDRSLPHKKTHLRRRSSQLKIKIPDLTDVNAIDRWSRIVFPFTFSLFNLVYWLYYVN
T3 sequence (P18507 40-475): as the sequence (P18507 40-475) above
Text: as §1, §2, §3, §4, §5, §6

T1 sequence (P47869 29-451): as the sequence (P47869 29-451) above
T1 sequence (P28472 26-473 partner): as the sequence (P28472 26-473 partner) above
T1 sequence (P18507 40-475): as the sequence (P18507 40-475) above

SMILES: C=CCNC(=O)c1nnc2c(-c3cc(OC)ccc3OC)cccc2c1N
Ki [1]: 8.91 nM | Relative Potentiation for GABAA1 [2]: 0.0075 | Relative Potentiation for GABAA2 [3]: 0.33

SMILES: CNC(=O)c1nnc2c(-c3cc(C)ccc3OC)cccc2c1N
Ki [1]: 35.8 nM | Relative Potentiation for GABAA1 [2]: 0.19 | Relative Potentiation for GABAA2 [3]: 0.43

SMILES: CCCNC(=O)c1nnc2c(-c3ccccc3)c(OC)ccc2c1N
Ki [1]: 91.4 nM | Relative Potentiation for GABAA1 [2]: 0.12 | Relative Potentiation for GABAA2 [3]: 0.08

SMILES: CCCNC(=O)c1nnc2c(-c3cc(OC)ccc3F)cccc2c1N
Ki [1]: 1.73 nM | Relative Potentiation for GABAA1 [2]: 0.26 | Relative Potentiation for GABAA2 [3]: 0.32

SMILES: CCCNC(=O)c1nnc2c(-c3cc(Cl)ccc3OC)cccc2c1N
Ki [1]: 1.11 nM | Relative Potentiation for GABAA1 [2]: 0.38 | Relative Potentiation for GABAA2 [3]: 0.4

SMILES: CCCNC(=O)c1nnc2c(-c3ccc(F)cc3F)cccc2c1N
Ki [1]: 1.72 nM | Relative Potentiation for GABAA1 [2]: −0.088 | Relative Potentiation for GABAA2 [3]: 0.12

SMILES: CCCNC(=O)c1nnc2c(-c3cccnc3)cccc2c1N
Ki [1]: 2.6 nM | Relative Potentiation for GABAA1 [2]: −0.11 | Relative Potentiation for GABAA2 [3]: 0.054

SMILES: CCCNC(=O)c1nnc2c(-c3cc(F)c(OC)cc3F)cccc2c1N
Ki [1]: 1.49 nM | Relative Potentiation for GABAA1 [2]: 0.016 | Relative Potentiation for GABAA2 [3]: 0.21

SMILES: CCCNC(=O)c1nnc2c(-c3ccccn3)cccc2c1N
Ki [1]: 19.4 nM | Relative Potentiation for GABAA1 [2]: 0.027 | Relative Potentiation for GABAA2 [3]: −0.032

SMILES: CCCNC(=O)c1nnc2c(-c3cc(C)ccc3C)c(F)ccc2c1N
Ki [1]: 1.31 nM | Relative Potentiation for GABAA1 [2]: 0.21 | Relative Potentiation for GABAA2 [3]: 0.28

SMILES: CCCNC(=O)c1nnc2c(-c3cccc(S(C)(=O)=O)c3)cccc2c1N
Ki [1]: 10.4 nM | Relative Potentiation for GABAA1 [2]: 0.34 | Relative Potentiation for GABAA2 [3]: 0.26

SMILES: COc1ccc(C)cc1-c1cccc2c(N)c(C(=O)NC3CC3)nnc12
Ki [1]: 15.2 nM

SMILES: CCCNC(=O)c1nnc2c(-c3cccc(Cl)c3)cccc2c1N
Ki [1]: 12.3 nM | Relative Potentiation for GABAA1 [2]: 0.18 | Relative Potentiation for GABAA2 [3]: 0.53

SMILES: COc1ncccc1-c1cccc2c(N)c(C(=O)NC3CC3)nnc12
Ki [1]: 0.501 nM | Relative Potentiation for GABAA1 [2]: −0.054

SMILES: CCCNC(=O)c1nnc2c(-c3cc(F)ccc3C)c(F)ccc2c1N
Ki [1]: 0.735 nM | Relative Potentiation for GABAA1 [2]: 0.032 | Relative Potentiation for GABAA2 [3]: 0.12

SMILES: COc1cccc(F)c1-c1cccc2c(N)c(C(=O)NC3CC3)nnc12
Ki [1]: 0.698 nM | Relative Potentiation for GABAA1 [2]: −0.048 | Relative Potentiation for GABAA2 [3]: 0.16

SMILES: CCCNC(=O)c1nnc2c(-c3c(Cl)cccc3OC)cccc2c1N [drawing 298]
Relative Potentiation for GABAA1 [2]: 0.004 | Relative Potentiation for GABAA2 [3]: 0.063

SMILES: COc1ccc(-c2cccc3c(N)c(C(=O)NC4CC4)nnc23)c(OC)c1
Ki [1]: 2.07 nM

SMILES: CCCNC(=O)c1nnc2c(-c3cc(C(=O)N4CCC4)ccc3OC)cccc2c1N
Ki [1]: 18.4 nM | Relative Potentiation for GABAA1 [2]: 0.48

SMILES: COc1ccc(-c2cccc3c(N)c(C(=O)NC4CCC4)nnc23)c(OC)c1
Ki [1]: 0.927 nM | Relative Potentiation for GABAA1 [2]: 0.091

SMILES: CCCNC(=O)c1nnc2c(-c3c(Cl)cccc3OC)cccc2c1N [drawing 410]
Relative Potentiation for GABAA1 [2]: −0.040

SMILES: CCCNC(=O)c1nnc2c(-c3nc(Br)ccc3OC)cccc2c1N
Ki [1]: 7.51 nM | Relative Potentiation for GABAA1 [2]: 0.34

Ki [1]: 514 nM
SMILES: CNC(=O)c1nnc2c(-c3cnc(OC)nc3OC)cccc2c1N

Ki [1]: 624 nM
SMILES: CCCNC(=O)c1nnc2c(-c3c(OC)cccc3OC)cccc2c1N

SMILES: COc1ccncc1-c1cccc2c(N)c(C(=O)NC3CC3)nnc12
Ki [1]: 0.785 nM | Relative Potentiation for GABAA1 [2]: 0.077

SMILES: CCCNC(=O)c1nnc2c(-c3cc(OC)ccc3OC)c(Cl)ccc2c1N
Ki [1]: 13.9 nM | Relative Potentiation for GABAA1 [2]: 0.32

SMILES: CCCNC(=O)c1nnc2c(-c3ccc(OC)cc3C(F)(F)F)c(F)ccc2c1N
Ki [1]: 0.624 nM | Relative Potentiation for GABAA1 [2]: 0.28

SMILES: CCCNC(=O)c1nnc2c(-c3ccc(F)cc3OCC)c(F)ccc2c1N
Ki [1]: 1.03 nM | Relative Potentiation for GABAA1 [2]: 0.27

SMILES: CCCCNC(=O)c1nnc2c(-c3cc(C)ccc3OC)cccc2c1N
Ki [1]: 13.3 nM | Relative Potentiation for GABAA1 [2]: 0.32

SMILES: CCCNC(=O)c1nnc2c(-c3ccc(OC)cc3OC)c(C#N)ccc2c1N
Ki [1]: 2.69 nM

SMILES: CCCNC(=O)c1nnc2c(-c3ccc(OC)cc3OC)c(Cl)ccc2c1N
Ki [1]: 5.71 nM | Relative Potentiation for GABAA1 [2]: 0.87

SMILES: CCCNC(=O)c1nnc2c(-c3cc(OC)cc(OC)c3)c(F)ccc2c1N
Ki [1]: 0.552 nM | Relative Potentiation for GABAA1 [2]: 0.38

SMILES: Cc1ccc(-c2cccc3c(N)c(C(=O)NC4CC4)nnc23)cn1
Ki [1]: 4.02 nM | Relative Potentiation for GABAA2 [3]: 0.074

SMILES: CCCNC(=O)c1nnc2c(-c3cc(Cl)ccc3OC)c(F)ccc2c1N
Ki [1]: 0.327 nM | Relative Potentiation for GABAA1 [2]: 0.25

SMILES: CCCNC(=O)c1nnc2c(-c3ccc(OC)c(OC)c3OC)c(F)ccc2c1N
Ki [1]: 0.6 nM | Relative Potentiation for GABAA1 [2]: 0.51

SMILES: CCNC(=O)c1nnc2c(-c3c(F)cccc3OC)cccc2c1N
Ki [1]: 0.301 nM

SMILES: CCNC(=O)c1nnc2c(-c3cc(C)ccc3OC)cccc2c1N
Ki [1]: 10.5 nM | Relative Potentiation for GABAA1 [2]: 0.23

SMILES: COc1ccc(-c2cccc3c(N)c(C(=O)NC4CC4)nnc23)c(OC)n1
Ki [1]: 1 nM

SMILES: CCNC(=O)c1nnc2c(-c3cnc(OC)c(F)c3)cccc2c1N
Ki [1]: 9 nM | Relative Potentiation for GABAA1 [2]: −0.010

SMILES: CCCNC(=O)c1nnc2c(-c3c(F)cccc3OC)c(F)ccc2c1N
Ki [1]: 0.341 nM

SMILES: CCCNC(=O)c1nnc2c(-c3cc(Cl)cc(Cl)c3)c(F)ccc2c1N
Ki [1]: 16.1 nM | Relative Potentiation for GABAA1 [2]: 0.36

SMILES: COc1ccc(F)cc1-c1cccc2c(N)c(C(=O)NC3CC3)nnc12
Ki [1]: 8.22 nM | Relative Potentiation for GABAA1 [2]: −0.028

SMILES: CCCNC(=O)c1nnc2c(-c3cc(Cl)ccc3Cl)c(F)ccc2c1N
Ki [1]: 1.34 nM | Relative Potentiation for GABAA1 [2]: 0.21

SMILES: CCCNC(=O)c1nnc2c(-c3cc(C)ccc3OC)c(Cl)ccc2c1N
Ki [1]: 2.89 nM | Relative Potentiation for GABAA1 [2]: 0.47

SMILES: CCNC(=O)c1nnc2c(-c3ccc(OC)cc3OC)cccc2c1N
Ki [1]: 4.54 nM | Relative Potentiation for GABAA1 [2]: −0.006
